From PubChem BioAssay AID1259407 (Chemical Carcinogenesis Research Information System (CCRIS), 2018)
Calls of active or inactive are those of the source. The rule behind the calls is not given here.

System: CCRIS mutagenicity, Ames/micronucleus/aberration tests
Assay: CCRIS mutagenicity studies
[1] = Test System: AMES SALMONELLA TYPHIMURIUM, Strain/Indicator: TA98, Metabolic Activation: NONE, Method: PREINCUBATION
[2] = Test System: AMES SALMONELLA TYPHIMURIUM, Strain/Indicator: TA100, Metabolic Activation: NONE, Method: PREINCUBATION
[3] = Test System: AMES SALMONELLA TYPHIMURIUM, Strain/Indicator: TA1535, Metabolic Activation: NONE, Method: PREINCUBATION
[4] = Test System: AMES SALMONELLA TYPHIMURIUM, Strain/Indicator: TA1537, Metabolic Activation: NONE, Method: PREINCUBATION

Measured: mutagenic call

Cc1cccc(O)c1
inactive: [1] inactive; negative | Test System: AMES SALMONELLA TYPHIMURIUM, Strain/Indicator: TA98, Metabolic Activation: RAT, LIVER, S-9, SODIUM PHENOBARBITAL AND 5,6-BENZOFLAVONE, Method: PREINCUBATION inactive; negative | [2] inactive; negative | Test System: AMES SALMONELLA TYPHIMURIUM, Strain/Indicator: TA100, Metabolic Activation: RAT, LIVER, S-9, SODIUM PHENOBARBITAL AND 5,6-BENZOFLAVONE, Method: PREINCUBATION inactive; negative | Test System: AMES SALMONELLA TYPHIMURIUM, Strain/Indicator: TA102, Metabolic Activation: NONE, Method: PREINCUBATION inactive; negative | Test System: AMES SALMONELLA TYPHIMURIUM, Strain/Indicator: TA102, Metabolic Activation: RAT, LIVER, S-9, SODIUM PHENOBARBITAL AND 5,6-BENZOFLAVONE, Method: PREINCUBATION inactive; negative | Test System: AMES SALMONELLA TYPHIMURIUM, Strain/Indicator: TA104, Metabolic Activation: NONE, Method: PREINCUBATION inactive; negative | Test System: AMES SALMONELLA TYPHIMURIUM, Strain/Indicator: TA104, Metabolic Activation: RAT, LIVER, S-9, SODIUM PHENOBARBITAL AND 5,6-BENZOFLAVONE, Method: PREINCUBATION inactive; negative | [3] inactive; negative | Test System: AMES SALMONELLA TYPHIMURIUM, Strain/Indicator: TA1535, Metabolic Activation: RAT, LIVER, S-9, SODIUM PHENOBARBITAL AND 5,6-BENZOFLAVONE, Method: PREINCUBATION inactive; negative | [4] inactive; negative | Test System: AMES SALMONELLA TYPHIMURIUM, Strain/Indicator: TA1537, Metabolic Activation: RAT, LIVER, S-9, SODIUM PHENOBARBITAL AND 5,6-BENZOFLAVONE, Method: PREINCUBATION inactive; negative | Test System: Ames Salmonella typhimurium, Strain/Indicator: TA98, Metabolic Activation: Hamster, Liver, S-9, Aroclor 1254 (10%), Method: Preincubation inactive; negative | Test System: Ames Salmonella typhimurium, Strain/Indicator: TA98, Metabolic Activation: None, Method: Preincubation inactive; negative | Test System: Ames Salmonella typhimurium, Strain/Indicator: TA98, Metabolic Activation: Rat, Liver, S-9, Aroclor 1254 (10%), Method: Preincubation inactive; negative | Test System: Ames Salmonella typhimurium, Strain/Indicator: TA100, Metabolic Activation: Hamster, Liver, S-9, Aroclor 1254 (10%), Method: Preincubation inactive; negative | Test System: Ames Salmonella typhimurium, Strain/Indicator: TA100, Metabolic Activation: None, Method: Preincubation inactive; negative | Test System: Ames Salmonella typhimurium, Strain/Indicator: TA100, Metabolic Activation: Rat, Liver, S-9, Aroclor 1254 (10%), Method: Preincubation inactive; negative | Test System: Ames Salmonella typhimurium, Strain/Indicator: TA1535, Metabolic Activation: Hamster, Liver, S-9, Aroclor 1254 (10%), Method: Preincubation inactive; negative | Test System: Ames Salmonella typhimurium, Strain/Indicator: TA1535, Metabolic Activation: None, Method: Preincubation inactive; negative | Test System: Ames Salmonella typhimurium, Strain/Indicator: TA1535, Metabolic Activation: Rat, Liver, S-9, Aroclor 1254 (10%), Method: Preincubation inactive; negative | Test System: Ames Salmonella typhimurium, Strain/Indicator: TA1537, Metabolic Activation: Hamster, Liver, S-9, Aroclor 1254 (10%), Method: Preincubation inactive; negative | Test System: Ames Salmonella typhimurium, Strain/Indicator: TA1537, Metabolic Activation: None, Method: Preincubation inactive; negative | Test System: Ames Salmonella typhimurium, Strain/Indicator: TA1537, Metabolic Activation: Rat, Liver, S-9, Aroclor 1254 (10%), Method: Preincubation inactive; negative | Test System: E. COLI, Strain/Indicator: WP2UVRA/PKM101, Metabolic Activation: NONE, Method: PREINCUBATION inactive; negative | Test System: E. COLI, Strain/Indicator: WP2UVRA/PKM101, Metabolic Activation: RAT, LIVER, S-9, PHENOBARBITAL AND BETA-NAPHTHOFLAVONE, Method: PREINCUBATION inactive; negative | Test System: E. COLI, Strain/Indicator: WP2UVRA, Metabolic Activation: NONE, Method: PREINCUBATION inactive; negative | Test System: E. COLI, Strain/Indicator: WP2UVRA, Metabolic Activation: RAT, LIVER, S-9, PHENOBARBITAL AND BETA-NAPHTHOFLAVONE, Method: PREINCUBATION inactive; negative
active: End Point: IN VITRO CHROMOSOMAL ABERRATIONS, Test System: SYRIAN HAMSTER EMBRYO (SHE) CELLS, Metabolic Activation: NONE active; positive (structural changes) | End Point: IN VITRO CHROMOSOMAL ABERRATIONS, Test System: SYRIAN HAMSTER EMBRYO (SHE) CELLS, Metabolic Activation: RAT, LIVER, S-9 active; positive (structural changes)

Cc1c(C)c(Br)c(Br)c(Br)c1Br
inactive: Test System: AMES SALMONELLA TYPHIMURIUM, Strain/Indicator: TA98, Metabolic Activation: HAMSTER, LIVER, S-9, AROCLOR 1254 (10%), Method: PREINCUBATION inactive; negative | [1] inactive; negative | Test System: AMES SALMONELLA TYPHIMURIUM, Strain/Indicator: TA98, Metabolic Activation: RAT, LIVER, S-9, AROCLOR 1254 (10%), Method: PREINCUBATION inactive; negative | Test System: AMES SALMONELLA TYPHIMURIUM, Strain/Indicator: TA100, Metabolic Activation: HAMSTER, LIVER, S-9, AROCLOR 1254 (10%), Method: PREINCUBATION inactive; negative | [2] inactive; negative | Test System: AMES SALMONELLA TYPHIMURIUM, Strain/Indicator: TA100, Metabolic Activation: RAT, LIVER, S-9, AROCLOR 1254 (10%), Method: PREINCUBATION inactive; negative | Test System: AMES SALMONELLA TYPHIMURIUM, Strain/Indicator: TA1535, Metabolic Activation: HAMSTER, LIVER, S-9, AROCLOR 1254 (10%), Method: PREINCUBATION inactive; negative | [3] inactive; negative | Test System: AMES SALMONELLA TYPHIMURIUM, Strain/Indicator: TA1535, Metabolic Activation: RAT, LIVER, S-9, AROCLOR 1254 (10%), Method: PREINCUBATION inactive; negative | Test System: AMES SALMONELLA TYPHIMURIUM, Strain/Indicator: TA1537, Metabolic Activation: HAMSTER, LIVER, S-9, AROCLOR 1254 (10%), Method: PREINCUBATION inactive; negative | [4] inactive; negative | Test System: AMES SALMONELLA TYPHIMURIUM, Strain/Indicator: TA1537, Metabolic Activation: RAT, LIVER, S-9, AROCLOR 1254 (10%), Method: PREINCUBATION inactive; negative

O=C(O)c1cccnc1Nc1cccc(C(F)(F)F)c1
inactive: Test System: AMES SALMONELLA TYPHIMURIUM, Strain/Indicator: TA1535, Metabolic Activation: NONE, Method: STANDARD PLATE inactive; negative
